Assay results as given in ChEMBL document CHEMBL5321200, “Discovery of the GSH responsive "Y-PROTACs" targeting ALK and CDK4/6 as a potential treatment for cancer” (Eur J Med Chem, 2023).
The source made the active and inactive calls. The rule behind the calls is not given here.

Columns and labels:
NCI-H3122 [1] = experiment: Antiproliferative activity against human NCI-H3122 cells assessed as inhibition of cell growth pretreated with GSH followed by compound addition and incubated for 3 to 5 days by MTT assay; assay type: functional, cell-based
NCI-H2228 [2] = experiment: Antiproliferative activity against human NCI-H2228 cells assessed as inhibition of cell growth pretreated with GSH followed by compound addition and incubated for 3 to 5 days by MTT assay; assay type: functional, cell-based
NCI-H1299 [3] = experiment: Antiproliferative activity against human NCI-H1299 cells assessed as inhibition of cell growth pretreated with GSH followed by compound addition and incubated for 3 to 5 days by MTT assay; assay type: functional, cell-based
[4] = target: Protein cereblon/Cyclin-dependent kinase 6 (Homo sapiens) (UniProt Q00534+Q96SW2); experiment: PROTAC activity at CRBN/CDK6 in human NCI-H3122 cells assessed as reduction in CDK6 protein level at 1 to 10 uM incubated for 24 hrs by Western blot analysis; assay type: cell-based; conditions: dose 1-10 µM
Protein cereblon/Cyclin-dependent kinase 6 (Homo sapiens), sequence (Q00534 whole entry, looked up): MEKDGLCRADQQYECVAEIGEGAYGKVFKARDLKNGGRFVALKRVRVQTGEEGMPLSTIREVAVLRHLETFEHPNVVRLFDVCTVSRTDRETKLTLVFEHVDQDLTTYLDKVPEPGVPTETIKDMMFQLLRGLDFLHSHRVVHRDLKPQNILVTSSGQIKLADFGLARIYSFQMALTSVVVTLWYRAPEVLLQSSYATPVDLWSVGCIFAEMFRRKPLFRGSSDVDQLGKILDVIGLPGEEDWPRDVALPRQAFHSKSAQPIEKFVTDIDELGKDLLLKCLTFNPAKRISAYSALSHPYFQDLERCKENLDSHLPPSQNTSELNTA
Protein cereblon/Cyclin-dependent kinase 6 (Homo sapiens), sequence (Q96SW2 whole entry, looked up): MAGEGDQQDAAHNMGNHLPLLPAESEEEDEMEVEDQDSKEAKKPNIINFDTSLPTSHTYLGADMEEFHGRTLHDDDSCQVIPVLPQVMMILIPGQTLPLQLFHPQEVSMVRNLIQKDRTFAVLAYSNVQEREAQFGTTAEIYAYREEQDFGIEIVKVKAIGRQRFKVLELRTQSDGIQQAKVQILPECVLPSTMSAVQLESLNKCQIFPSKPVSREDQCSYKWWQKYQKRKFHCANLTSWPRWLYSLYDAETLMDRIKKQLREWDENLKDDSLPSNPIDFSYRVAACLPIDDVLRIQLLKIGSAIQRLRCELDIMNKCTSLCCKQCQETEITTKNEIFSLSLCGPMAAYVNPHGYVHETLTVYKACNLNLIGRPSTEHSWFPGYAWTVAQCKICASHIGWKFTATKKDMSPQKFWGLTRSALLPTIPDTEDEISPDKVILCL

[5] = target: Cyclin-dependent kinase 4 (Homo sapiens) (UniProt P11802); experiment: Inhibition of CDK4 (unknown origin) at 0.05 uM by LANCE Ultra TR-FRET assay relative to control
Cyclin-dependent kinase 4 (Homo sapiens), sequence (P11802 whole entry): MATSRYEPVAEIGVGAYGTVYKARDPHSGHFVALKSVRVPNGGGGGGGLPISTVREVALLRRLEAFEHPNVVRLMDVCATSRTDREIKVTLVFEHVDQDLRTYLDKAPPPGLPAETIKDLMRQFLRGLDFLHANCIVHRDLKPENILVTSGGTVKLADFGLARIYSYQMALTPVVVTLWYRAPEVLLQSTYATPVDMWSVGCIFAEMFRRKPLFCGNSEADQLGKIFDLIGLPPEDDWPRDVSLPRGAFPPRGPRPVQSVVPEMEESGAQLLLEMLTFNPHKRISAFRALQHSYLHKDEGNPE

NCI-H1299 [6] = experiment: Antiproliferative activity against human NCI-H1299 cells assessed as inhibition of cell growth incubated for 3 to 5 days by MTT assay; assay type: functional, cell-based
NCI-H2228 [7] = experiment: Antiproliferative activity against human NCI-H2228 cells assessed as inhibition of cell growth incubated for 3 to 5 days by MTT assay; assay type: functional, cell-based
[8] = target: Cyclin-dependent kinase 4 (Homo sapiens) (UniProt P11802); experiment: Inhibition of CDK4 (unknown origin) at 1 uM by LANCE Ultra TR-FRET assay relative to control
[9] = target: ALK tyrosine kinase receptor (Homo sapiens) (UniProt Q9UM73); experiment: Inhibition of ALK (unknown origin) at 1 uM by LANCE Ultra TR-FRET assay relative to control
ALK tyrosine kinase receptor (Homo sapiens), sequence (Q9UM73 19-1620 limits assumed): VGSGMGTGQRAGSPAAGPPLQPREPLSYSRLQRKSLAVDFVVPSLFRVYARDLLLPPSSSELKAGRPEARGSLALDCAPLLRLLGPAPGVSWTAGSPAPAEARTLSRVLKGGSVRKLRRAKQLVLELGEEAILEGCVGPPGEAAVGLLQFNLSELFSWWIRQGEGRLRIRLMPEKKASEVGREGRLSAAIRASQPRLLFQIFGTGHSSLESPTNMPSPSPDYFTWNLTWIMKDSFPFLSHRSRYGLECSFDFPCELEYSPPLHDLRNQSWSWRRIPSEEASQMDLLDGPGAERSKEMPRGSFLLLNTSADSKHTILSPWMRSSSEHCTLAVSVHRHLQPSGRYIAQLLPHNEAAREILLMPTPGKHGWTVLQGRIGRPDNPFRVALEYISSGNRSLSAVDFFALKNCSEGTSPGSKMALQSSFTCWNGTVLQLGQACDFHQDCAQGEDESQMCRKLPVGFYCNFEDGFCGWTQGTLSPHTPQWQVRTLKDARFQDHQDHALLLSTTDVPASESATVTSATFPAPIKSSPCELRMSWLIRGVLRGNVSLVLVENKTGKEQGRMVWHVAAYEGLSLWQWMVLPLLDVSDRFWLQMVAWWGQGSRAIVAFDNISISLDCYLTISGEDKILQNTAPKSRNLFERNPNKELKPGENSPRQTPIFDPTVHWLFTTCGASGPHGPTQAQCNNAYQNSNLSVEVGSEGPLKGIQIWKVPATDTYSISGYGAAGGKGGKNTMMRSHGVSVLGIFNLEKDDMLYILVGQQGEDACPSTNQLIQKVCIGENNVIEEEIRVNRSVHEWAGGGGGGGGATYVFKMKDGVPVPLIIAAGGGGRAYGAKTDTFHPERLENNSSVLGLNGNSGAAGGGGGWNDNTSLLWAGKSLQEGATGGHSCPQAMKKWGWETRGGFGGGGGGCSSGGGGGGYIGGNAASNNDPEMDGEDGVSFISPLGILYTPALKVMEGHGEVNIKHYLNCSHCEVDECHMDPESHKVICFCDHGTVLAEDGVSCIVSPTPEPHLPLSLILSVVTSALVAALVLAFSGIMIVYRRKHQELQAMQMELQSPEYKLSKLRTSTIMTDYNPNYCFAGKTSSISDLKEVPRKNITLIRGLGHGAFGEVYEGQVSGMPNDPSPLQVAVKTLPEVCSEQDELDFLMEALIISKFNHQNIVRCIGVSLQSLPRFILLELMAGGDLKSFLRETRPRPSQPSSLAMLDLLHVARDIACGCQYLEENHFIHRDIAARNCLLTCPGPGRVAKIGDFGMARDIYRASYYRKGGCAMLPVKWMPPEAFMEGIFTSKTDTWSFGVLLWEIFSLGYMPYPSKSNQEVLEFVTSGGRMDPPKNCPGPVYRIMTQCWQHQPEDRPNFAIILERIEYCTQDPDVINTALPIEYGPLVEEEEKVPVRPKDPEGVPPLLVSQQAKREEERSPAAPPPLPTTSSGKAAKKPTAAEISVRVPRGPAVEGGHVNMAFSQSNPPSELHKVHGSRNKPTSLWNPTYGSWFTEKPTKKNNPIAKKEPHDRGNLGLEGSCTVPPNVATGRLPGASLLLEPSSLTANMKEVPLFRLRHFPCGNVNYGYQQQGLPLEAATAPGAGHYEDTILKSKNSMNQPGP

[10] = target: ALK tyrosine kinase receptor (Homo sapiens) (UniProt Q9UM73); experiment: Inhibition of ALK (unknown origin) at 0.05 uM by LANCE Ultra TR-FRET assay relative to control
[11] = target: Cyclin-dependent kinase 6 (Homo sapiens) (UniProt Q00534); experiment: Inhibition of CDK6 (unknown origin) at 0.05 uM by LANCE Ultra TR-FRET assay relative to control
Cyclin-dependent kinase 6 (Homo sapiens), sequence (Q00534 whole entry): as the sequence (Q00534 whole entry, looked up) above

[12] = Cytotoxicity against human L02 cells assessed as inhibition of cell growth pretreated with GSH followed by compound addition and incubated for 3 to 5 days by MTT assay; assay type: toxicity, cell-based
[13] = Cytotoxicity against human L02 cells assessed as inhibition of cell growth incubated for 3 to 5 days by MTT assay; assay type: toxicity, cell-based
[14] = target: Cyclin-dependent kinase 6 (Homo sapiens) (UniProt Q00534); experiment: Inhibition of CDK6 (unknown origin) at 1 uM by LANCE Ultra TR-FRET assay relative to control
NCI-H3122 [15] = experiment: Antiproliferative activity against human NCI-H3122 cells assessed as inhibition of cell growth incubated for 3 to 5 days by MTT assay; assay type: functional, cell-based

CC(=O)c1c(C)c2cnc(Nc3ccc(N4CCN(CC(=O)NCCSSCCN(CC(=O)Nc5cccc6c5C(=O)N(C5CCC(=O)NC5=O)C6=O)C(=O)CCCCC(=O)N5CCC(c6cc(OC(C)C)c(Nc7ncc(Cl)c(Nc8ccccc8S(=O)(=O)C(C)C)n7)cc6C)CC5)CC4)cn3)nc2n(C2CCCC2)c1=O (stereo not given) gave an IC50 (NCI-H3122 [1]) of 1.06 µM, an IC50 (NCI-H2228 [2]) of 8.73 µM and an IC50 (NCI-H1299 [3]) of 4.31 µM. The Activity [4] was “inactive”, the inhibition [5] was 51.4% and the IC50 (NCI-H1299 [6]) was 3.29 µM. It also gave an IC50 (NCI-H2228 [7]) of 13 µM, an inhibition [8] of 77.5% and an inhibition [9] of 66.8%. The inhibition [10] was 18.3%, the inhibition [11] was 92.7% and the IC50 [12] was 18.2 µM. For the same compound, the IC50 [13] was 45.1 µM, the inhibition [14] was 97.3% and the IC50 (NCI-H3122 [15]) was 1.99 µM.
